Laboratory results reported in ChEMBL document CHEMBL1949666, “Inhibition of human monoamine oxidase A and B by 5-phenoxy 8-aminoquinoline analogs” (Bioorg Med Chem Lett, 2012).

Legend:
[1] = molecular target: T1, Amine oxidase [flavin-containing] B (Homo sapiens, UniProt P27338); assay: Inhibition of human recombinant MAOB assessed as conversion of kynuramine to 4-hydroxyquinoline preincubated for 15 mins by fluorimetric assay
T1 sequence (P27338 whole entry): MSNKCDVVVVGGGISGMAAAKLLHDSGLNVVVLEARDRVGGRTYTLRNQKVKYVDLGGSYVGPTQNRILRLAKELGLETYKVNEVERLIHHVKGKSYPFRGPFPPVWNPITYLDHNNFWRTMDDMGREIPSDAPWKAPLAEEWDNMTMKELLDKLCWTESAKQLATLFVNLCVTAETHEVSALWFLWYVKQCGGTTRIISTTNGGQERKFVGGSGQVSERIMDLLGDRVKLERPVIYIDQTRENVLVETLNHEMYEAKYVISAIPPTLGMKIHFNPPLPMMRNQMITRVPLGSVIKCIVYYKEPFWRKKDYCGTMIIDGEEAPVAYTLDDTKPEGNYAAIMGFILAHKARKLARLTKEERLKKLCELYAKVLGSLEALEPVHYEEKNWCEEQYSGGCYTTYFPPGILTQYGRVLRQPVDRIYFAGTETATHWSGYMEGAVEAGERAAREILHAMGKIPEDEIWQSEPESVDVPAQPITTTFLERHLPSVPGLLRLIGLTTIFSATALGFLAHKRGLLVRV

[2] = species on record: Homo sapiens; assay: Selectivity index, ratio of IC50 for human recombinant MAOA to IC50 for human recombinant MAOB
[3] = molecular target: T2, Amine oxidase [flavin-containing] A (Homo sapiens, UniProt P21397); assay: Inhibition of human recombinant MAOA assessed as conversion of kynuramine to 4-hydroxyquinoline preincubated for 15 mins by fluorimetric assay
T2 sequence (P21397 whole entry): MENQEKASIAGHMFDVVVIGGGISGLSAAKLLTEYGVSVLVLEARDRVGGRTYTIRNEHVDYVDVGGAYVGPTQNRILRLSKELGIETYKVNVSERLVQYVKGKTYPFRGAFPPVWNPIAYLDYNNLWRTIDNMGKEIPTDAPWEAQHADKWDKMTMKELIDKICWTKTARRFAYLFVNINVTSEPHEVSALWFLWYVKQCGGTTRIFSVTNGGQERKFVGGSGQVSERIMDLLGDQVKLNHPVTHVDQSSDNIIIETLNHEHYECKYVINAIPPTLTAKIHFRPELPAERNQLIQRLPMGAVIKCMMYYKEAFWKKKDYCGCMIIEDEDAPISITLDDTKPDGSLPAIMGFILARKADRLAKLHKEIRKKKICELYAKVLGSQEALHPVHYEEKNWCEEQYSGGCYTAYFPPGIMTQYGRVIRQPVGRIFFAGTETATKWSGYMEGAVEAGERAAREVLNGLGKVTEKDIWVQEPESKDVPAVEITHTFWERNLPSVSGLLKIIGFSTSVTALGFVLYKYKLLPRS

IC50 [1] [µM]	Ratio IC50 [2]	IC50 [3] [µM]	Structure (SMILES)
94.5	0.8		COc1cc(NC(C)CCCN)c2ncccc2c1 (stereo unspecified) [PRIMAQUINE]
3.65	6.22	22.7	COc1cc(NC(C)CCCN)c2nccc(C)c2c1Oc1ccc(F)c(F)c1 (stereo unspecified)
10.8	0.3	3.22	COc1cc(NC(C)CCCN)c2nccc(C)c2c1Oc1cccc(F)c1 (stereo unspecified)
33.4	0.29	9.7	COc1cc(NC(C)CCCN)c2nccc(C)c2c1Oc1ccc(F)cc1 (stereo unspecified)
